Data set [1] concerns Male Sprague Dawley rats, gastric hemorrhagic lesion. Description: rat gastric lesion test. Conditions: rat fasted 24 hours, oral gavage, lesion score (summed length, mm) three hours after dosing; ratio relative to parent NSAID (Naproxen = 1).
Experimental: Male Sprague Dawley rats (Charles River Laboratories, Wilmington, Mass.) weighing 230-250 g were used for the experiments. The rats were housed with laboratory chow and water ad libitum prior to the study. The rats were fasted for 24 hours with free access to water and then dosed by oral gavage with vehicle or with test compounds given at a volume of 0.5 mL/100 g. […] Rats were euthanized by CO2 three hours after dosing. The stomachs were dissected along the greater curvature, washed with a directed stream of 0.9% saline and pinned open on a sylgard based petri dish for examination of the hemorrhagic lesion. Gastric lesion score was expressed in mm and calculated by summing the length of each lesion.
The test system of data set [2] is Male Sprague-Dawley rats, carrageenan paw edema. Description: rat paw edema test (carrageenan), antiinflammatory activity. Conditions: oral gavage one hour prior to subplantar carrageenan, paw volume three hours later, expressed as ratio (Vehicle = 1). Format: in vivo. Here is the method: The rat paw edema test was used to measure the antiinflammatory activity. The rat paw edema test was performed according to the method of Winter et al, Proc. Soc. […] Male Sprague-Dawley rats (250-275 g) were fasted overnight and dosed by oral gavage with vehicle or suspensions of compound one hour prior to the subplantar injection of 50 μl of 1% suspension of carrageenan. Three hours later, the paw volume was measured and compared with the initial volume measured immediately after carrageenan injection.

One may read the melting point as the temperature, or range, at which the solid turns liquid.

The structures appear in SMILES notation.

Regarding `COc1ccc2cc([C@H](C)C(=O)OCC(=O)COC(=O)c3ccc(CO[N+](=O)[O-])cc3)ccc2c1` [Example 11, 3-(4-((Nitrooxy)methyl)phenylcarbonyloxy)-2-oxopropyl (2S)-2-(6-methoxy(2-naphthyl))propanoate], the melting point was 105 to 107 °C.

Consider `COc1ccc2cc([C@H](C)C(=O)Oc3ccc(C(=O)OCCO[N+](=O)[O-])cc3)ccc2c1` [Example 32, 4-((2-(Nitrooxy)ethyl)oxycarbonyl)phenyl (2S)-2-(6-methoxy(2-naphthyl))propanoate], for which the “Relative Activity Gastric Lesion” value in data set [1] came out at 0.06.

Compound `COc1ccc2cc([C@H](C)C(=O)OCC(=O)N(C)CCCO[N+](=O)[O-])ccc2c1` [Example 34, (N-methyl-N-(3-(nitrooxy)propyl)carbamoyl)methyl (2S)-2-(6-methoxy(2-naphthyl))propanoate] gave a melting point of 104 to 105 °C. Also, the “Relative Activity Gastric Lesion” value in data set [1] is 0.02.

For `COc1ccc2cc([C@H](C)C(=O)O)ccc2c1` [Naproxen, (2S)-2-(6-methoxy(2-naphthyl))propanoic acid, reference compound], the “Relative Activity Gastric Lesion” value in data set [1] was determined as 1.

`COc1ccc2cc([C@H](C)C(=O)OCCOc3ccc(OCCO[N+](=O)[O-])cc3)ccc2c1` [Example 39, 2-(4-(2-(Nitrooxy)ethoxy)phenoxy)ethyl (2S)-2-(6-methoxy(2-naphthyl))propanoate]: the melting point fell in the range of 67 to 69 °C. For the same compound, the “Relative Activity Gastric Lesion” value in data set [1] is listed as 0.04.

Consider `COc1ccc2cc([C@H](C)C(=O)OCC(=O)N(C)CC(=O)OCCO[N+](=O)[O-])ccc2c1` [Example 20, (N-Methyl-N-(((2-(nitrooxy)ethyl)oxycarbonyl)methyl)carbamoyl)methyl (2S)-2-(6-methoxy(2-naphthyl))propanoate], for which the melting point was in the range of 71 to 73 °C. Further, the “Relative Activity Gastric Lesion” value in data set [1] came out at 0.03.

`COc1ccc2cc([C@H](C)C(=O)OCCN(CCO[N+](=O)[O-])S(=O)(=O)c3ccc(C)cc3)ccc2c1` [Example 48, 2-(((4-Methylphenyl)sulfonyl)(2-(nitrooxy)ethyl)amino)ethyl (2S)-2-(6-methoxy(2-naphthyl))propanoate] displayed a melting point of 92 to 95 °C.

Turning to `COc1ccc2cc([C@H](C)C(=O)OC[C@@H](O)CO[N+](=O)[O-])ccc2c1` [Example 28, (2R)-2-hydroxy-3-(nitrooxy)propyl (2S)-2-(6-methoxy(2-naphthyl)) propanoate], in data set [2], the “Relative Activity Antiinflammation” value is listed as 0.57.

Regarding `COc1ccc2cc([C@H](C)C(=O)OCC(CO[N+](=O)[O-])(CO[N+](=O)[O-])[N+](=O)[O-])ccc2c1` [Example 13, 2-Nitro-3-(nitrooxy)-2-((nitrooxy)methyl)propyl (2S)-2-(6-methoxy(2-naphthyl))propanoate], the melting point fell in the range of 69 to 71 °C. Further, the “Relative Activity Gastric Lesion” value in data set [1] came to 0.55.

As to `COc1ccc2cc([C@H](C)C(=O)OCCS(=O)(=O)CCO[N+](=O)[O-])ccc2c1` [Example 2, 2-((2-(Nitrooxy)ethyl)sulfonyl)ethyl (2S)-2-(6-methoxy(2-naphthyl)) propanoate], the “Relative Activity Antiinflammation” value in data set [2] is given as 0.49. Moreover, the “Relative Activity Gastric Lesion” value in data set [1] turned out to be 0.11.

For `COc1ccc2cc([C@H](C)C(=O)OCC(=O)COC(=O)Cc3ccc(CO[N+](=O)[O-])cc3)ccc2c1` [Example 30, 3-(2-(4-((Nitrooxy)methyl)phenyl)acetyloxy)-2-oxopropyl (2S)-2-(6-methoxy(2-naphthyl))propanoate], the melting point is 92 to 95 °C.

Take `COc1ccc2cc([C@H](C)C(=O)OCC(=O)N(C)CC(=O)NCCO[N+](=O)[O-])ccc2c1` [Example 22, (N-Methyl-N-((N-(2-(nitrooxy)ethyl)carbamoyl)methyl)carbamoyl)methyl (2S)-2-(6-methoxy(2-naphthyl))propanoate]: the melting point lay within 79 to 81 °C.

As for `COc1ccc2cc([C@H](C)C(=O)SCCCCO[N+](=O)[O-])ccc2c1` [Example 54, (2S)-2-(6-methoxy(2-naphthyl))-1-(4-(nitrooxy)butylthio)propan-1-one], the melting point fell in the range of 30 to 35 °C.

Turning to `COc1ccc2cc(C(C)C(=O)OCC(=O)NCCCO[N+](=O)[O-])ccc2c1` (stereo not shown) [Example 24, (N-(3-(Nitrooxy)propyl)carbamoyl)methyl 2-(6-methoxy-2-naphthyl)propanoate], the melting point lay within 51 to 53 °C.

For the compound `COc1ccc2cc([C@H](C)C(=O)OCC(=O)N(C)CC(=O)OCCCO[N+](=O)[O-])ccc2c1` [Example 21, (N-Methyl-N-(((3-(nitrooxy)propyl)oxycarbonyl)methyl)carbamoyl)methyl (2S)-2-(6-methoxy(2-naphthyl))propanoate], the melting point was in the range of 41 to 43 °C. Moreover, the “Relative Activity Gastric Lesion” value in data set [1] was determined as 0.19.

Turning to `COc1ccc2cc([C@H](C)C(=O)OCC(=O)O[C@@H]3CO[C@H]4[C@H]3OC[C@H]4O[N+](=O)[O-])ccc2c1` [Example 26, (1S,5S,2R,6R)-6-(Nitrooxy)-4,8-dioxabicyclo(3.3.0)oct-2-yl)oxycarbonyl) methyl (2S)-2-(6-methoxy (2-naphthyl)) propanoate], in data set [2], the “Relative Activity Antiinflammation” value is 0.75. In addition, the “Relative Activity Gastric Lesion” value in data set [1] is listed as 0.07.

In the case of `COc1ccc2cc([C@H](C)C(=O)OCCOC(=O)C(=O)OCCCO[N+](=O)[O-])ccc2c1` [Example 40, 2-((2S)-2-(6-Methoxy(2-naphthyl))propanoyloxy)ethyl 3-(nitrooxy)-propyl ethane-1,2-dioate], the melting point fell in the range of 55 to 58 °C.

In turn, `COc1ccc2cc([C@H](C)C(=O)OCC(=O)N(C)CCO[N+](=O)[O-])ccc2c1` [Example 17, (N-Methyl-N-(2-(nitrooxy)ethyl)carbamoyl)methyl (2S)-2-(6-methoxy(2-naphthyl))propanoate] had a melting point of 80 to 81 °C.

`CCN(CCO[N+](=O)[O-])C(=O)COC(=O)[C@@H](C)c1ccc2cc(OC)ccc2c1` [Example 18, (N-Ethyl-N-(2-(nitrooxy)ethyl)carbamoyl)methyl (2S)-2-(6-methoxy(2-naphthyl))propanoate] returned a melting point of 60 to 61 °C. Further, the “Relative Activity Gastric Lesion” value in data set [1] amounted to 0.25.

Regarding `COc1ccc2cc([C@H](C)C(=O)NOCC(=O)N3CCC(CO[N+](=O)[O-])CC3)ccc2c1` [Example 35, (2S)-2-(6-Methoxy(2-naphthyl))-N-(2-(4-((nitrooxy)methyl)piperidyl)-2-oxoethoxy)propanamide], the “Relative Activity Antiinflammation” value in data set [2] was determined as 0.06.

Turning to `COc1ccc2cc([C@H](C)C(=O)OCC3(CO[N+](=O)[O-])COCOC3)ccc2c1` [Example 9], the “Relative Activity Antiinflammation” value in data set [2] is listed as 0.69. For the same compound, the “Relative Activity Gastric Lesion” value in data set [1] came out at 0.02.

`O=C(COC(=O)Cc1ccccc1Nc1c(Cl)cccc1Cl)NCCO[N+](=O)[O-]` [Example 57, (N-(2-(Nitrooxy)ethyl)carbamoyl)methyl 2-(2-((2,6-dichlorophenyl)amino)phenyl)acetate] gave a melting point of 81 to 83 °C.

Turning to `COc1ccc2cc([C@H](C)C(=O)OCC(C)(CO[N+](=O)[O-])[N+](=O)[O-])ccc2c1` (stereo partly drawn) [Example 12, 2-Methyl-2-nitro-3-(nitrooxy)propyl(2S)-2-(6-methoxy(2-naphthyl)) propanoate], in data set [2], the “Relative Activity Antiinflammation” value is recorded as 0.47. For the same compound, the “Relative Activity Gastric Lesion” value in data set [1] came to 0.18.

Regarding `COc1ccc2cc([C@H](C)C(=O)OCCN(C)C(=O)c3ccc(CO[N+](=O)[O-])cc3)ccc2c1` [Example 45, 2-(N-Methyl(4-((nitrooxy)methyl)phenyl)carbonylamino)ethyl (2S)-2-(6-methoxy(2-naphthyl))propanoate], the melting point was 108 to 115 °C.

For the compound `COc1ccc2cc([C@H](C)C(=O)OCCOC(=O)NCCO[N+](=O)[O-])ccc2c1` [Example 14, 2-(N-(2-(Nitrooxy)ethyl)carbamoyloxy)ethyl (2S)-2-(6-methoxy(2-naphthyl))propanoate], the melting point was in the range of 56 to 57 °C. In addition, the “Relative Activity Gastric Lesion” value in data set [1] is given as 0.15.

As to `COc1ccc2c(c1)c(CC(=O)OCC(=O)NCCO[N+](=O)[O-])c(C)n2C(=O)c1ccc(Cl)cc1` [Example 56, (N-(2-(Nitrooxy)ethyl)carbamoyl)methyl 2-(1-((4-chlorophenyl)carbonyl)-5-methoxy-2-methylindol-3-yl)acetate], the melting point lay in the range of 128 to 129 °C.

`COc1ccc2cc([C@H](C)C(=O)NNC(=O)CCCO[N+](=O)[O-])ccc2c1` [Example 41, N-((2S)-2-(6-Methoxy(2-naphthyl))propanoylamino)-4 (nitrooxy)butanamide] displayed a melting point of 117 to 119 °C.

As for `COc1ccc2c(c1)c(CC(=O)O[C@H]1CO[C@H]3[C@H]1OC[C@H]3O[N+](=O)[O-])c(C)n2C(=O)c1ccc(Cl)cc1` [Example 46, (1S,2S,5S,6R)-6-(Nitrooxy)-4,8-dioxabicyclo(3.3.0)oct-2-yl 2-(1-((4 chlorophenyl)carbonyl)-5-methoxy-2-methylindol-3-yl)acetate], the melting point was 159 to 160 °C.

In the case of `COc1ccc2cc([C@H](C)C(=O)OC[C@@H](CO[N+](=O)[O-])O[N+](=O)[O-])ccc2c1` [Example 27c, (2S)-2,3-Bis(nitrooxy)propyl (2S)-2-(6-methoxy(2-naphthyl))propanoate], the “Relative Activity Gastric Lesion” value in data set [1] was determined as 0.20.

On to `COc1ccc2cc([C@H](C)C(=O)OCCSCCO[N+](=O)[O-])ccc2c1` [Example 1, 2-(2-(Nitrooxy)ethylthio)ethyl (2S)-2-(6-methoxy(2-naphthyl))propanoate], for which the melting point fell in the range of 33 to 37 °C. For the same compound, in data set [1], the “Relative Activity Gastric Lesion” value is 0.32.

In turn, `COc1ccc2cc(C(C)C(=O)OCC(=O)OCCO[N+](=O)[O-])ccc2c1` (stereo not shown) [Example 23, ((2-(Nitrooxy)ethyl)oxycarbonyl)methyl 2-(6-methoxy-2-naphthyl)propanoate] displayed a melting point of 44 to 45 °C.

For the origin of these results see patent publication US7754772B2, “Nitrosated nonsteroidal antiinflammatory compounds, compositions and methods of use” (NicOx, S.A., priority 2002, dated 2010).
